The test deals with human prostate cancer cell line PC-3. Briefly: cells. In kind it is cell-based. How it is done: Aziridinyl putrescine 1-(4-aminobutyl) aziridine was synthesized using the method as described by Piper, et al., J. Med. Chem. 12: 236-243 (1968). Cells of the human prostate cancer cell line PC-3 were used.
10^3 PC-3 human cells were plated in RPMI 1640 with 10% FCS/3 ml in 60 mm^2 petri dishes. The cell plates were incubated either with, or without difluoromethylornithine for 48 hours. This was followed by aspiration, and replacement with a medium containing either no additives, 50 uM 1-(4-aminobutyl) aziridine, 1 mM putrescine, or both 50 uM 1-(4-aminobutyl) aziridine and 1 mM putrescine. The media were aspirated after 1 hour, and replaced with a drug free medium. Incubation continued for 5 days.
*Represents mean number of colonies ± one standard deviation of
triplicate assay. Number in parenthesis is percent of control.

This note sets out measurements from patent US4925835A, “Aziridinyl putrescine containing compositions and their uses in treating prostate cancer” (priority 1987, dated 1990).

With `NCCCCN1CC1` [AZP, 1-(4-aminobutyl) aziridine], under “Homo sapiens, PC-3, read-out: Clonogenic survivors, percent of control”, the activity at 50 µM stood at 36%. Also, the inhibition at 50 µM (Homo sapiens, PC-3, read-out: Inhibition of proliferation of human prostate cancer cells in culture, AZP at 50 uM, from Table 1) was about 64%. Further, the “Clonogenic survivors (mean number of colonies ± one standard deviation)” value (PC-3, 48 h with or without DFMO, then 1 h with 50 uM AZP and/or 1 mM putrescine, 5 days drug free) amounted to 210 ± 30 colonies.
